Laboratory results taken from patent US20260285853A1, “COMPOUNDS AND METHODS FOR MODULATING SPLICING” (REMIX THERAPEUTICS INC., priority 2023, published 2026).
Where a name gives a salt, the structure may show the parent alone.

Experiments:
Type in all cases: cell-based
HTT mRNA [1] = test: Splicing RT-qPCR assay (THP), Table 2A; details: Table 2A (THP); for AC50: AJ mRNA increase, read-out: HTT AJ (increase in alternative junction mRNA, AC50); for IC50: CJ mRNA decrease, read-out: HTT CJ (decrease in canonical junction mRNA, IC50)
MYB mRNA [2] = test: Gene panel canonical junction qPCR assay, decrease in CJ mRNA, Table 3; details: decrease in canonical junction (CJ) mRNA, gene panel qPCR, Table 3
Summary of the method: (§1)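 Canonical exon-junction (CJ) transcript measured by 5′ nuclease RT-qPCR, normalized to GAPDH, GUSB or PPIA and to DMSO control (2^(−ΔΔCt)). A673 or K562 cells treated 24 h at 37° C with an 11-point 3-fold dilution series, top 10 uM, DMSO ≤0.25%. IC50 from 4-parameter logistic fit of percentage CJ decrease.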

HTT mRNA [3] = test: as above; details: decrease in canonical junction (CJ) mRNA, gene panel qPCR, Table 3
Summary of the method: as §1

MYB mRNA [4] = test: Splicing RT-qPCR assay (THP), Table 2A; details: Table 2A (THP); for AC50: AJ mRNA increase, read-out: MYB AJ (increase in alternative junction mRNA, AC50); for IC50: CJ mRNA decrease, read-out: MYB CJ (decrease in canonical junction mRNA, IC50)
[5] = system: SH-SY5Y (human neuroblastoma) cells; test: Cell viability, Cell Titer Glo 2.0 assay; details: read-out: Viability SHSY5Y.3 GI50
Summary of the method: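 SH-SY5Y cells were exposed to serially diluted compounds in IMDM with 10% FBS and 0.1% DMSO for 72 hours at 37° C., 5% CO2. Viability was measured by CellTiter-Glo 2.0 luminescence, with medium-only wells as blank.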

Structure (SMILES)	AC50 (HTT mRNA [1])	IC50 (HTT mRNA [1])	IC50 (MYB mRNA [2])	IC50 (HTT mRNA [3])	AC50 (MYB mRNA [4])	IC50 (MYB mRNA [4])	GI50 [5]
COc1cc2nn(C)cc2cc1NC(=O)c1ccc(N2CCC(N3CCNCC3)C2)c2cn(C)nc12 (stereo not drawn) [Compound 539]	1000 to 10000 nM	> 10000 nM	> 10000 nM	> 10000 nM	> 10000 nM	> 10000 nM	> 10000 nM
COc1cc2nn(C)cc2cc1NC(=O)c1ccc(N2CCC3(CCN3)CC2)c2cn(C)nc12 [Compound 540]	1000 to 10000 nM	1000 to 10000 nM	< 100 nM	1000 to 10000 nM	< 100 nM	< 100 nM	1000 to 10000 nM
COc1cc2nn(C)cc2cc1NC(=O)c1ccc(N2CCC3(CCCN3)CC2)c2cn(C)nc12 [Compound 541]	100 to 1000 nM	100 to 1000 nM	< 100 nM	100 to 1000 nM	< 100 nM	< 100 nM	1000 to 10000 nM
COc1cc2nn(C)cc2cc1NC(=O)c1ccc(N2CCC3NCC3C2)c2cn(C)nc12 (stereo not drawn) [Compound 542]	> 10000 nM	> 10000 nM	1000 to 10000 nM	> 10000 nM	100 to 1000 nM	1000 to 10000 nM	> 10000 nM
COc1cc2nn(C)cc2cc1NC(=O)c1ccc(N2CCC3NCCC3C2)c2cn(C)nc12 (stereo not drawn) [Compound 543]	1000 to 10000 nM	1000 to 10000 nM	100 to 1000 nM	1000 to 10000 nM	100 to 1000 nM	100 to 1000 nM	1000 to 10000 nM
COc1cc2nn(C)cc2cc1NC(=O)c1ccc(N2CCN(C3CNC3)CC2)c2cn(C)nc12 [Compound 544]	100 to 1000 nM	100 to 1000 nM	100 to 1000 nM	100 to 1000 nM	100 to 1000 nM	100 to 1000 nM	100 to 1000 nM
CNCC1CCCN(c2ccc(C(=O)Nc3cc4cn(C)nc4cc3OC)c3nn(C)cc23)C1 (stereo not drawn) [Compound 545]	> 10000 nM	> 10000 nM	1000 to 10000 nM	> 10000 nM	1000 to 10000 nM	1000 to 10000 nM	1000 to 10000 nM
COc1cc2nn(C)cc2cc1NC(=O)c1ccc(N2CCNC(C)CC2)c2cn(C)nc12 (stereo not drawn) [Compound 546]	> 10000 nM	> 10000 nM	100 to 1000 nM	> 10000 nM	100 to 1000 nM	100 to 1000 nM	1000 to 10000 nM
COc1cc2nn(C)cc2cc1NC(=O)c1ccc(NC2CCCNCC2)c2cn(C)nc12 (stereo not drawn) [Compound 547]	1000 to 10000 nM	1000 to 10000 nM	1000 to 10000 nM	1000 to 10000 nM	1000 to 10000 nM	1000 to 10000 nM	> 10000 nM
COc1cc2nn(C)cc2cc1NC(=O)c1ccc(N(C)C2CCNCC2)c2cn(C)nc12 [Compound 548]	> 10000 nM	> 10000 nM	100 to 1000 nM	> 10000 nM	100 to 1000 nM	100 to 1000 nM	1000 to 10000 nM
Cc1cn2cc(NC(=O)c3ccc(N4C[C@H](C)N[C@@H](C)C4)c4cn(C)nc34)nc2c(C)n1 [Compound 549]	> 10000 nM	> 10000 nM	1000 to 10000 nM	> 10000 nM	1000 to 10000 nM	1000 to 10000 nM	> 10000 nM
COc1cc2nn(C)cc2cc1NC(=O)c1ccc(N2C[C@H](C)N[C@@H](C)C2)c2cn(C)nc12 [Compound 553]	1000 to 10000 nM	1000 to 10000 nM	100 to 1000 nM	1000 to 10000 nM	< 100 nM	100 to 1000 nM	1000 to 10000 nM
Cc1cn2cc(NC(=O)c3ccc(N4CCNC(C)C4)c4cn(C)nc34)nc2c(C)n1 (stereo not drawn) [Compound 557]	> 10000 nM	> 10000 nM	100 to 1000 nM	> 10000 nM	100 to 1000 nM	100 to 1000 nM	1000 to 10000 nM
CC1OB(O)c2ccc(NC(=O)c3c(F)cc(N4CCC(NC5CC5)CC4)c4cn(C)nc34)cc21 (stereo not drawn) [Compound 558, 4-(4-(cyclopropyl-amino)piperidin-1-yl)-6-fluoro-N-(1-hydroxy-3-methyl-1,3-dihydrobenzo[c]-[1,2]oxaborol-5-y1)-2-methyl-2H-indazole-7-carboxamide hydrochloride]	> 10000 nM	> 10000 nM	1000 to 10000 nM	> 10000 nM	1000 to 10000 nM	1000 to 10000 nM	100 to 1000 nM
Cc1cc2sc(NC(=O)c3ccc(N4CCC(NC5CC5)CC4)c4cn(C)nc34)cc2c(C)n1 [Compound 559, 4-[4-(cyclopropylamino)-1-piperidyl]-N-(4,6-dimethyl-thieno[3,2-c]-pyridin-2-yl)-2-methyl-indazole-7-carboxamide]	1000 to 10000 nM	1000 to 10000 nM	1000 to 10000 nM	1000 to 10000 nM	1000 to 10000 nM	1000 to 10000 nM	1000 to 10000 nM
CCNC1CCN(c2ccc(C(=O)Nc3cn(C)c(=O)cc3OC)c3nn(C)cc23)CC1 [Compound 560, 4-[4-(ethylamino)-1-piperidyl]-N-(4-methoxy-1-methyl-6-oxo-3-pyridyl)-2-methyl-indazole-7-carboxamide]	> 10000 nM	> 10000 nM	1000 to 10000 nM	> 10000 nM	> 10000 nM	1000 to 10000 nM	> 10000 nM
CCNC1CCN(c2ccc(C(=O)Nc3cc(C)c(=O)n(C)c3)c3nn(C)cc23)CC1 [Compound 561, N-(1,5-dimethyl-6-oxo-3-pyridyl)-4-[4-(ethylamino)-1-piperidyl]-2-methyl-indazole-7-carboxamide]	> 10000 nM	> 10000 nM	1000 to 10000 nM	> 10000 nM	> 10000 nM	1000 to 10000 nM	> 10000 nM
Cc1cn2cc(NC(=O)c3ccc(N4CC5(CCNCC5)C4)c4cn(C)nc34)nc2c(C)n1 [Compound 562]	> 10000 nM	> 10000 nM	> 10000 nM	> 10000 nM	> 10000 nM	> 10000 nM	> 10000 nM
Cc1cn2cc(NC(=O)c3ccc(N4CCC5(CCN5)CC4)c4cn(C)nc34)nc2c(C)n1 [Compound 563, 4-(1,7-diazaspiro[3.5]nonan-7-yl)-N-(6,8-dimethyl-imidazo[1,2-a]pyrazin-2-yl)-2-methyl-indazole-7-carboxamide]	> 10000 nM	> 10000 nM	100 to 1000 nM	> 10000 nM	100 to 1000 nM	100 to 1000 nM	> 10000 nM
Cc1cn2cc(NC(=O)c3ccc(N(C)C4CCNCC4)c4cn(C)nc34)nc2c(C)n1 [Compound 564]	100 to 1000 nM	100 to 1000 nM	100 to 1000 nM	100 to 1000 nM	100 to 1000 nM	100 to 1000 nM	100 to 1000 nM
Cc1cn2cc(NC(=O)c3ccc(OC4CCNCC4)c4cn(C)nc34)nc2c(C)n1 [Compound 565]	100 to 1000 nM	100 to 1000 nM	100 to 1000 nM	100 to 1000 nM	100 to 1000 nM	100 to 1000 nM	100 to 1000 nM
COc1cc2nn(C)cc2cc1NC(=O)c1ccc(OC2CCNCC2)c2cn(C)nc12 [Compound 566]	1000 to 10000 nM	100 to 1000 nM	100 to 1000 nM	100 to 1000 nM	100 to 1000 nM	100 to 1000 nM	1000 to 10000 nM
COc1cc2nn(C)cc2cc1NC(=O)c1ccc(OC2CCNC2)c2cn(C)nc12 (stereo not drawn) [Compound 567]	1000 to 10000 nM	100 to 1000 nM	100 to 1000 nM	100 to 1000 nM	100 to 1000 nM	100 to 1000 nM	1000 to 10000 nM
COc1cc2nn(C)cc2cc1NC(=O)c1ccc(N2CCNC(C)C2)c2cn(C)nc12 (stereo not drawn) [Compound 568]	1000 to 10000 nM	100 to 1000 nM	100 to 1000 nM	100 to 1000 nM	100 to 1000 nM	100 to 1000 nM	1000 to 10000 nM
Cc1cn2cc(NC(=O)c3ccc(N4CCC(NC5CC5)CC4)c4cn(C)nc34)c(OC(C)C)c2c(C)n1 [Compound 569, 4-[4-(cyclopropylamino)-1-piperidyl]-N-(8-isopropoxy-1,3-dimethyl-pyrrolo[1,2-a]pyrazin-7-yl)-2-methyl-indazole-7-carboxamide]	> 10000 nM	> 10000 nM	> 10000 nM	> 10000 nM	> 10000 nM	> 10000 nM	1000 to 10000 nM
Cc1cn2cc(NC(=O)c3ccc(N4CCC(NC5CC5)CC4)c4cn(C)nc34)cc2c(CNS(C)(=O)=O)n1 [Compound 570, 4-[4-(cyclopropyl-amino)-1-piperidyl]-N-[1-(methanesulfonamidometh-yl)-3-methyl-pyrrolo[1,2-a]-pyrazin-7-yl]-2-methyl-indazole-7-carboxamide]	> 10000 nM	> 10000 nM	> 10000 nM	> 10000 nM	> 10000 nM	> 10000 nM	> 10000 nM
CCNC1(C)CCN(c2ccc(C(=O)Nc3cn4cc(C)nc(C)c4c3F)c3nn(C)cc23)CC1 [Compound 571, 4-[4-(ethylamino)-4-methyl-1-piperidyl]-N-(8-fluoro-1,3-dimethyl-pyrrolo[1,2-a]-pyrazin-7-yl)-2-methyl-indazole-7-carboxamide]	> 10000 nM	> 10000 nM	1000 to 10000 nM	> 10000 nM	1000 to 10000 nM	1000 to 10000 nM	1000 to 10000 nM
